The results in this text go back to patent publication US20100120013A1, “PROCEDURE FOR LONG TERM CORNEAL CULTURE” (MB RESEARCH LABORATORIES, INC., priority 2008, published 2010).

This data set concerns excised cultured porcine corneas. Conditions: pig, 5 min, 100 %.

Protocol: The toxicological ocular irritation and recovery testing procedure is conducted on excised corneas (53), FIG. 7, according to the following steps. • a) The toxicological ocular irritation and recovery testing procedure begins approximately 24 hours after the corneas are excised. This allows the corneas to be placed in a custom culture media (55) to equilibrate to the culture conditions for 24 hours (57). […] Unsuccessfully treated corneas are discarded (73). • j) The toxicity of the test material is determined by measuring cell vitality, death, or impairment in the cultured corneal tissue via confocal microscopy paired with various vital dyes, whether colored or fluorescent. […]
Also further included is a method for measuring cell death or impairment with NaFL in the cultured corneal tissue according to the following steps. • i) On days “1”, “2”, “3”, “7”, “10”, “14”, and “21” of the toxicological ocular irritation and recovery testing procedure, the percentage of damaged corneal tissue area is determined by staining with 2% sodium fluorescein (NaFL) stain as in the Draize rabbit eye test. • ii) The culture media is examined microscopically throughout the toxicological ocular irritation and recovery testing procedure for presence of contamination.

Regarding `CCO` [ethanol], the “time in culture at which dosed corneas no longer retain NaFL stain (recovery)” value fell in the range of 3 to 10 days.
